ChEMBL document CHEMBL5728073, “Compounds that inhibit Mcl-1 protein” (2020)

Assay: Time-Resolved Fluorescence Resonance Energy Transfer (TR-FRET) Assay: The inhibition of the Mcl-1/Bim interaction was measured using a time-resolved fluorescence resonance energy transfer (TR-FRET) assay. The recombinant human Mcl-1 (C-terminally 6ÃHis tagged Mcl-1 containing residues 171-327) was generated at Amgen Inc (Thousand Oaks, Calif.). A biotinylated peptide derived from human Bim …
Description: Time-Resolved Fluorescence Resonance Energy Transfer (TR-FRET) Assay: The inhibition of the Mcl-1/Bim interaction was measured using a time-resolved fluorescence resonance energy transfer (TR-FRET) assay. […] A biotinylated peptide derived from human Bim (residues 51-76) was purchased from CPC Scientific (San Jose, Calif.). The TR-FRET assay was conducted in a 384-well white OptiPlate (PerkinElmer, Waltham, Mass.) in a total volume of 40 uL. […] The reaction plates were further incubated overnight and then were read on an EnvisionÂ multimode reader (PerkinElmer). […] The IC50 values of test compounds were determined from duplicate data by analyzing competition curves using a four-parameter sigmoidal model in GraphPad Prism.

IC50 | Structure (SMILES)
0.494 nM | CO[C@@]1(CN2CCN3CCC(F)(F)C[C@@H]3C2)/C=C\C[C@H](C)[C@@H](C)S(=O)(=O)NC(=O)c2ccc3c(c2)N(C[C@@H]2CC[C@H]21)C[C@@]1(CCCc2cc(Cl)ccc21)CO3
0.225 nM | CCCCN1CCN(C[C@]2(OC)/C=C/C[C@H](C)[C@@H](C)S(=O)(=O)NC(=O)c3ccc4c(c3)N(C[C@@H]3CC[C@H]32)C[C@@]2(CCCc3cc(Cl)ccc32)CO4)CC1
0.097 nM | C[C@@H]1[C@@H](C)C/C=C\[C@](O)(CN2CCN3CCCC[C@@H]3C2)[C@@H]2CC[C@H]2CN2C[C@@]3(CCCc4cc(Cl)ccc43)COc3ccc(cc32)C(=O)NS1(=O)=O
